Converted amounts (≈) assume the structure as drawn.
Experiments:
[1] = tested on: vancomycin-sensitive enterococci; experiment: mean geometric MIC, vancomycin-sensitive enterococci, broth micro-dilution; format: cell-based, Enterococcus faecium and Enterococcus faecalis; details: Table 3, representative vancomycin-sensitive enterococci
Method: (§1) The antibacterial efficacy of the present teicoplanin derivatives is illustrated by the following tables. The minimal inhibitory concentrations (MICs) were determined using a standard broth micro-dilution assay.

[2] = tested on: vancomycin-resistant enterococci; experiment: mean geometric MIC, vancomycin-resistant enterococci, broth micro-dilution; format: cell-based, Enterococcus faecium and Enterococcus faecalis; details: Table 3, representative vancomycin-resistant enterococci
Method: as §1

[3] = tested on: St. pyro C203; experiment: standard broth micro-dilution MIC; format: cell-based; details: Table 2C; strain C203
Method: as §1

[4] = tested on: S. aureus 446; experiment: standard broth micro-dilution MIC; format: cell-based; details: Table 2A; strain 446
Method: as §1

[5] = tested on: S. aureus X778; experiment: standard broth micro-dilution MIC; format: cell-based; details: Table 2A; strain X778
Method: as §1

[6] = tested on: E. f. 2041; experiment: standard broth micro-dilution MIC; format: cell-based; details: Table 2B; strain 2041
Method: as §1

[7] = tested on: St. pneumo P1; experiment: standard broth micro-dilution MIC; format: cell-based; details: Table 2C; strain P1
Method: as §1

[8] = tested on: S. aureus 491; experiment: standard broth micro-dilution MIC; format: cell-based; details: Table 2A; strain 491
Method: as §1

[9] = tested on: E. f. 180-1; experiment: standard broth micro-dilution MIC; format: cell-based; details: Table 2B; strain 180-1
Method: as §1

[10] = tested on: S. aureus S13E; experiment: standard broth micro-dilution MIC; format: cell-based; details: Table 2A; strain S13E
Method: as §1

[11] = tested on: S. aureus X400; experiment: standard broth micro-dilution MIC; format: cell-based; details: Table 2A; strain X400
Method: as §1

[12] = tested on: EC14; experiment: standard broth micro-dilution MIC; format: cell-based; details: Table 2C; strain EC14
Method: as §1

[13] = tested on: S. h. 105; experiment: standard broth micro-dilution MIC; format: cell-based; details: Table 2B; strain 105
Method: as §1

[14] = tested on: S. aureus 489; experiment: standard broth micro-dilution MIC; format: cell-based; details: Table 2A; strain 489
Method: as §1

[15] = tested on: S. aureus 447; experiment: standard broth micro-dilution MIC; format: cell-based; details: Table 2A; strain 447
Method: as §1

[16] = tested on: E. f. 180; experiment: standard broth micro-dilution MIC; format: cell-based; details: Table 2B; strain 180
Method: as §1

[17] = tested on: S. epi 270; experiment: standard broth micro-dilution MIC; format: cell-based; details: Table 2B; strain 270
Method: as §1

[18] = tested on: S. h. 415; experiment: standard broth micro-dilution MIC; format: cell-based; details: Table 2B; strain 415
Method: as §1

[19] = tested on: E. f. 276; experiment: standard broth micro-dilution MIC; format: cell-based; details: Table 2C; strain 276
Method: as §1

[20] = tested on: S. aureus SA1199B; experiment: standard broth micro-dilution MIC; format: cell-based; details: Table 2B; strain SA1199B
Method: as §1

[21] = tested on: S. aureus SA1199R; experiment: standard broth micro-dilution MIC; format: cell-based; details: Table 2B; strain SA1199R
Method: as §1

[22] = tested on: M. cat M12; experiment: standard broth micro-dilution MIC; format: cell-based; details: Table 2C; strain M12
Method: as §1

[23] = tested on: S. aureus SA1199; experiment: standard broth micro-dilution MIC; format: cell-based; details: Table 2A; strain SA1199
Method: as §1

[24] = tested on: E. gall. 245; experiment: standard broth micro-dilution MIC; format: cell-based; details: Table 2C; strain 245
Method: as §1

Row | Compound | Sens. MIC [1] [µg/mL] | Resist. MIC [2] [µg/mL] | MIC St. pyro C203 [3] | MIC S. aureus 446 [4] [µg/mL] | MIC S. aureus X778 [5] [µg/mL] | MIC E. f. 2041 [6] [µg/mL] | MIC St. pneumo P1 [7] | MIC S. aureus 491 [8] [µg/mL] | MIC E. f. 180-1 [9] [µg/mL] | MIC S. aureus S13E [10] [µg/mL] | MIC S. aureus X400 [11] [µg/mL] | MIC EC14 [12] [µg/mL] | MIC S. h. 105 [13] [µg/mL] | MIC S. aureus 489 [14] [µg/mL] | MIC S. aureus 447 [15] [µg/mL] | MIC E. f. 180 [16] [µg/mL] | MIC S. epi 270 [17] [µg/mL] | MIC S. h. 415 [18] [µg/mL] | also measured
1 | CC(=O)NC1C(OC2c3ccc(c(Cl)c3)Oc3cc4cc(c3OC3OC(CO)C(O)C(O)C3NCc3ccc(-c5ccccc5)cc3)Oc3ccc(cc3Cl)CC3NC(=O)C(N)c5ccc(O)c(c5)Oc5cc(O)cc(c5)C(NC3=O)C(=O)NC4C(=O)NC3C(=O)NC2C(=O)NC(C(=O)O)c2cc(O)cc(OC4OC(CO)C(O)C(O)C4O)c2-c2cc3ccc2O)OC(CO)C(O)C1O (stereo not shown) [Example 3, Deacyl Teicoplanin, N^Glu-(4-phenylbenzyl) Derivative] | 4.6 | > 64 |  |  |  |  |  |  |  |  |  |  |  |  |  |  |  |  | 
2 | CC(=O)NC1C(OC2c3ccc(c(Cl)c3)Oc3cc4cc(c3OC3OC(CO)C(O)C(O)C3NCc3ccc(C=Cc5ccccc5)cc3)Oc3ccc(cc3Cl)CC3NC(=O)C(N)c5ccc(O)c(c5)Oc5cc(O)cc(c5)C(NC3=O)C(=O)NC4C(=O)NC3C(=O)NC2C(=O)NC(C(=O)O)c2cc(O)cc(OC4OC(CO)C(O)C(O)C4O)c2-c2cc3ccc2O)OC(CO)C(O)C1O (stereo not shown) [Example 7] | 0.76 | 19.03 | 0.25 µg/mL (≈ 0.13 µM) | 2 (≈ 1.04 µM) | 2 (≈ 1.04 µM) | 0.25 (≈ 0.13 µM) | ≤ .06 µg/mL | 1 (≈ 0.521 µM) | 1 (≈ 0.521 µM) | 0.5 (≈ 0.261 µM) | 0.5 (≈ 0.261 µM) | > 128 | 0.25 (≈ 0.13 µM) | 0.25 (≈ 0.13 µM) | 2 (≈ 1.04 µM) | 64 (≈ 33.4 µM) | 2 (≈ 1.04 µM) | 32 (≈ 16.7 µM) | 
3 | CC(=O)NC1C(OC2c3ccc(c(Cl)c3)Oc3cc4cc(c3OC3OC(CO)C(O)C(O)C3NCc3ccc(C=Cc5ccccc5)cc3)Oc3ccc(cc3Cl)CC3NC(=O)C(NCc5ccc(C=Cc6ccccc6)cc5)c5ccc(O)c(c5)Oc5cc(O)cc(c5)C(NC3=O)C(=O)NC4C(=O)NC3C(=O)NC2C(=O)NC(C(=O)O)c2cc(O)cc(OC4OC(CO)C(O)C(O)C4O)c2-c2cc3ccc2O)OC(CO)C(O)C1O (stereo not shown) [Example 8] | 0.22 | 0.59 | 0.125 µg/mL (≈ 0.0592 µM) | 1 (≈ 0.474 µM) | 2 (≈ 0.948 µM) | 0.125 (≈ 0.0592 µM) | 0.25 µg/mL (≈ 0.118 µM) | 1 (≈ 0.474 µM) | 0.125 (≈ 0.0592 µM) | 2 (≈ 0.948 µM) | 1 (≈ 0.474 µM) | > 64 | > 64 | 0.25 (≈ 0.118 µM) | 1 (≈ 0.474 µM) | 0.25 (≈ 0.118 µM) | 1 (≈ 0.474 µM) | > 64 | MIC E. f. 276 [19]: 0.5 µg/mL (≈ 0.237 µM); MIC S. aureus SA1199B [20]: 2 µg/mL (≈ 0.948 µM); MIC S. aureus SA1199R [21]: 0.125 µg/mL (≈ 0.0592 µM); MIC M. cat M12 [22]: 0.25 µg/mL (≈ 0.118 µM); MIC S. aureus SA1199 [23]: 4 µg/mL (≈ 1.9 µM); MIC E. gall. 245 [24]: 0.25 µg/mL (≈ 0.118 µM)
4 | CC(=O)NC1C(OC2c3ccc(c(Cl)c3)Oc3cc4cc(c3OC3OC(CO)C(O)C(O)C3NCc3ccc(OC(F)(F)F)cc3)Oc3ccc(cc3Cl)CC3NC(=O)C(NCc5ccc(OC(F)(F)F)cc5)c5ccc(O)c(c5)Oc5cc(O)cc(c5)C(NC3=O)C(=O)NC4C(=O)NC3C(=O)NC2C(=O)NC(C(=O)O)c2cc(O)cc(OC4OC(CO)C(O)C(O)C4O)c2-c2cc3ccc2O)OC(CO)C(O)C1O (stereo not shown) [Example 13] | 0.25 | 45 | ≤ .06 µg/mL | 1 (≈ 0.482 µM) | 1 (≈ 0.482 µM) |  | 0.05 µg/mL (≈ 0.0241 µM) | 0.5 (≈ 0.241 µM) |  | 1 (≈ 0.482 µM) | 0.5 (≈ 0.241 µM) | > 128 | 32 (≈ 15.4 µM) | 0.5 (≈ 0.241 µM) | 1 (≈ 0.482 µM) | 4 (≈ 1.93 µM) | 0.5 (≈ 0.241 µM) | 8 (≈ 3.86 µM) | 
5 | CC(=O)NC1C(OC2c3ccc(c(Cl)c3)Oc3cc4cc(c3OC3OC(CO)C(O)C(O)C3NCc3ccc(OC(F)(F)F)cc3)Oc3ccc(cc3Cl)CC3NC(=O)C(N)c5ccc(O)c(c5)Oc5cc(O)cc(c5)C(NC3=O)C(=O)NC4C(=O)NC3C(=O)NC2C(=O)NC(C(=O)O)c2cc(O)cc(OC4OC(CO)C(O)C(O)C4O)c2-c2cc3ccc2O)OC(CO)C(O)C1O (stereo not shown) [Example 14] | 5.28 | > 32 | 1 µg/mL (≈ 0.526 µM) | 4 (≈ 2.11 µM) | 4 (≈ 2.11 µM) | 8 (≈ 4.21 µM) | 1 µg/mL (≈ 0.526 µM) | 2 (≈ 1.05 µM) | 8 (≈ 4.21 µM) | 2 (≈ 1.05 µM) | 2 (≈ 1.05 µM) | > 128 | 1 (≈ 0.526 µM) | 2 (≈ 1.05 µM) | 8 (≈ 4.21 µM) | > 128 | 2 (≈ 1.05 µM) | > 128 | 
6 | Deacyl Teicoplanin, Bis(10-undecen-1-yl) Derivative [Example 4] | 1.5 | 1.2 | 0.5 µg/mL | 4 | 4 |  | 1 µg/mL | 4 |  | 2 | 2 | > 128 | 16 | 2 | 8 | 8 | 2 | 16 | 
